# PubChem BioAssay (NCI)
#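 Briefly, cells in 96-well plates were exposed to five compound concentrations for 48 h, and endpoints were estimated by linear interpolation. The concentration for 50% growth inhibition is given as GI50. TGI: total growth inhibition.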
# Legend:
# Test in all cases: inhibition of tumour cell growth, NCI panel, 48 h
# MDA-MB-435 = system: MDA-MB-435
# UACC-257 melanoma = system: UACC-257 melanoma
# NCI-H522 lung = system: NCI-H522 lung
# CCRF-CEM leukemia = system: CCRF-CEM leukemia
# SN12C renal = system: SN12C renal
# NCI-H226 lung = system: NCI-H226 lung
# HS 578T breast = system: HS 578T breast
# BT-549 breast = system: BT-549 breast
# HCC-2998 colon = system: HCC-2998 colon
# SF-295 CNS = system: SF-295 CNS
SMILES,GI50 (MDA-MB-435) [µM],TGI (MDA-MB-435) [µM],GI50 (UACC-257 melanoma) [µM],TGI (UACC-257 melanoma) [µM],GI50 (NCI-H522 lung) [µM],TGI (NCI-H522 lung) [µM],GI50 (CCRF-CEM leukemia) [µM],TGI (CCRF-CEM leukemia) [µM],GI50 (SN12C renal) [µM],TGI (SN12C renal) [µM],GI50 (NCI-H226 lung) [µM],TGI (NCI-H226 lung) [µM],GI50 (HS 578T breast) [µM],TGI (HS 578T breast) [µM],GI50 (BT-549 breast) [µM],TGI (BT-549 breast) [µM],GI50 (HCC-2998 colon) [µM],TGI (HCC-2998 colon) [µM],GI50 (SF-295 CNS) [µM],TGI (SF-295 CNS) [µM]
C=C1C(=O)O[C@H]2[C@H]1CC/C(CNC(=O)/C=C/c1cccc(OC)c1)=C\CC[C@@]1(C)O[C@@H]21,1.53,5.04,1.45,2.98,0.435,1.77,0.419,5.29,1.53,4.34,1.82,4.84,2.2,11.2,1.57,3.66,1.83,3.31,5.54,19.3
COc1cc([C@@H]2c3cc4c(cc3C(Br)[C@H]3COC(=O)[C@H]23)OCO4)cc(OC)c1OC (stereo not given in full),0.0365,–,0.214,> 100,0.072,0.389,0.363,> 100,0.549,> 100,0.721,> 100,0.142,0.707,0.254,–,0.255,0.694,0.0859,–
Cc1cc(=O)c2cc(N=Cc3ccc([N+](=O)[O-])o3)ccc2o1,–,> 100,–,> 100,–,> 100,–,> 100,–,> 100,–,> 100,–,> 100,–,> 100,–,> 100,–,> 100
CN(C)C(=S)NN=C(c1ccccn1)c1ccccn1,0.076,16.7,< 0.012,2.51,0.124,19.1,–,> 65.2,0.0971,33.4,0.0445,12.7,–,> 55.4,0.074,15.4,0.0327,21.2,0.0421,18.6
COC(=O)Nc1nc2ccc(Oc3ccc(NC(=O)Nc4cccc(Br)c4)cc3)cc2[nH]1,0.0839,0.46,1.95,> 16,0.351,2.7,1.59,> 25,4.65,> 25,7.59,> 25,3.16,> 19.8,11.3,> 25,6.04,> 25,1.18,> 19.2
CN(C)c1ccc(C(=O)c2ccc(N(C)C)c(N)c2)cc1N,0.422,1.25,> 100,> 100,0.346,4.61,1.93,> 100,6.08,> 100,16.8,> 82.5,1.75,> 21.2,8.02,> 88.2,3.9,39.3,2.03,33.4
COc1cc2c(cc1OCCCOC1=C=C=C(c3ccc4c(c3)c3cc(-c5ccc(OCCCOc6cc7c(cc6OC)C(=O)N6CCC[C@H]6C=N7)cc5)ccc3n4S(=O)(=O)c3ccc(C)cc3)C=C1)N=C[C@@H]1CCCN1C2=O,2.07,5.25,6.71,15.6,3.53,39.6,0.19,> 50,2,9.98,4,12.9,1.42,> 10.8,1.16,4.59,0.731,3.67,1.14,4.62
Cc1ccccc1S(=O)(=O)N1[C@H](c2ccc(Cl)cc2)C(C(=O)N[C@@H](Cc2ccccc2)C(N)=O)=C[C@@H]1C(C)(C)C,6.83,13.7,8.31,17.2,7.92,15.6,5.77,26.7,6.08,13.3,7.05,16.1,8.64,26.4,8.63,20.9,6.48,13.5,2.8,10
C[C@@H]1COCCN1c1nc(-c2cnc(N)cc2C(F)F)nc(N2[C@H](C)COC[C@@H]2C)n1,0.321,10.6,0.323,8.05,0.267,12.8,0.431,21.2,0.302,15.9,0.2,11.2,0.128,0.611,0.144,1.75,0.31,12.2,0.116,1.69
Nc1nc2c(c3ncccc13)C(c1ccc(Cl)c(Cl)c1)Cc1ncccc1-2 (stereo not given),0.867,2.95,13.2,26.4,1.5,5.1,3.27,16.6,6.71,24.8,16.6,41.5,3.62,19.2,3.73,16.7,5.62,19.1,2.82,7.94
O=C1c2ccccc2-c2c1c1ccc([N+](=O)[O-])cc1c(=O)n2CCNCCCNCCn1c2c(c3ccc([N+](=O)[O-])cc3c1=O)C(=O)c1ccccc1-2,1.39,18.1,8.89,25.1,1.14,19.5,0.00645,3.97,0.144,4.04,0.125,3.16,1.34,31.4,2.57,50,0.992,13.3,0.0715,19.9
C=C(C)C(=O)OC1CC2(C)OC2CC(OC(C)=O)/C(C)=C/C2OC(=O)C(=C)C21 (stereo not given),–,7.5,–,18.5,–,0.851,–,0.654,–,9.37,–,48,–,30.6,–,5.41,–,15.1,–,30.3
CC1=C(C(=O)Nc2ccc3[nH]ncc3c2)C(c2ccc(F)cc2)NC(=O)N1 (stereo not given),> 25,> 25,> 25,> 25,> 18.2,> 25,> 25,> 25,> 25,> 25,6.46,> 25,7.41,> 25,16.9,> 25,> 25,> 25,> 25,> 25
